In patent publication US12485096B2 (CHENLAND NUTRITIONALS, INC., priority 2020, dated 2025):

Experiments:
[1] = Dispersion in water (photographs, FIG. 1); assay type: physicochemical
[2] = system: Caco-2 cells, HT-29 cells and Raji-B cells; assay: Cell uptake of curcumin in three-cell model, flow cytometry; settings: curcumin 20 μg/mL, 4 hours; verapamil 300 μg/mL, sodium azide 1 mg/mL, ketoconazole 10 μg/mL

With `COc1cc(/C=C/C(=O)CC(=O)/C=C/c2ccc(O)c(OC)c2)ccc1O` [Curcumin raw material, Curcumin] the “dispersion in water (in words)” value [1] was “insoluble in water” and the “average value (intake of curcumin by cells, fluorescence)” value [2] was 19.4.
